In patent US9809602B2, “Compounds for treating viral infections” (INSTITUT PASTEUR KOREA, priority 2014, dated 2017) one finds EC50 data, which are given here for 56 compounds.

One experiment concerns genotype 1/2 chimeric cell culture derived HCV (HCVcc). The experiment is described as follows: Genotype 1/2 chimeric HCVcc assay (nano-luciferase, HCV replication). The class given is cell-based. Conditions: Hepatitis C virus. In outline:
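Huh-7.5 cells (2400/well) pretreated 2 h with serially diluted compound, then infected with nano-luciferase genotype 1a/2a (JFH-1) chimeric HCVcc. At 72 h post infection, nano-luciferase reported replication and cellular ATP reported cytotoxicity; EC50 and CC50 by non-linear regression.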
For `O=S(=O)(NCCCN1CCC(N2CCCCC2)CC1)c1ccc(-c2ccccc2)cc1` [Compound 1090], the half-maximal effective concentration (EC50) (commonly the concentration giving half of the maximal effect) is 100 to 1000 nM.
Same read-out and setting: then `O=C(NCCCN1CCC(N2CCCCC2)CC1)c1cccc(Oc2ccccc2)c1` [Compound 1031], with 1000 to 10000 nM.
Same read-out and setting: for `O=C(NCCCN1CCC(N2CCCCC2)CC1)c1ccc(-c2ccc(N3CCOCC3)cc2)cc1` [Compound 1123] the value was 100 to 1000 nM; for `O=C(NCCCN1CCC(N2CCCCC2)CC1)c1ccc(-c2ccc(CN3CCOCC3)cc2)cc1` [Compound 1138], 1000 to 10000 nM.
In the case of `O=C(NCCCN1CCC(N2CCCCC2)CC1)c1ccc(-c2cccc([N+](=O)[O-])c2)cc1` [Compound 1147], the EC50 is 100 to 1000 nM.
In turn, `O=C(NCCCN1CCC(N2CCCCC2)CC1)c1ccc(N2CCCCC2)cc1` [Compound 1030] came in with a half-maximal effective concentration (EC50) of 1000 to 10000 nM.
`O=C(NCCCN1CCC(N2CCCCC2)CC1)Nc1ccc(-c2ccc(C(F)(F)F)cc2)cc1` [Compound 1118]: the half-maximal effective concentration (EC50) fell in the range of 100 to 1000 nM.
Still for that read-out and setting: then `O=C(NCCCN1CCC(N2CCCCC2)CC1)c1ccc2c(c1)NC(=O)c1ccccc1S2` [Compound 1066], with 1000 to 10000 nM; and `COc1ccc(Oc2ccc(C(=O)NCCCN3CCC(N4CCCCC4)CC3)cc2)cc1` [Compound 1032], with 100 to 1000 nM.
The same measure, in the same setting: for `Cc1cc(NC(=O)CCCN2CCC(N3CCCCC3)CC2)ccc1-c1ccc(C(F)(F)F)cc1` [Compound 1152] the value was < 100 nM.
Same read-out and setting: then `N#Cc1ccc(Oc2ccc(C(=O)NCCCN3CCC(N4CCCCC4)CC3)cc2)cc1` [Compound 1035], with > 10000 nM; and `O=C(NCCCN1CCC(N2CCCCC2)CC1)c1ccc(OCc2ccc(F)cc2)cc1` [Compound 1043], with 1000 to 10000 nM; and `Cc1cccc(-c2ccc(C(=O)NCCCN3CCC(N4CCCCC4)CC3)cc2)c1` [Compound 1014], with 1000 to 10000 nM.
Take `CC(C)C1CCN(C2CCN(CCCNC(=O)c3ccc(Oc4ccccc4)cc3)CC2)CC1` [Compound 1069]: the EC50 was 100 to 1000 nM.

Still in this experiment, the particulars now being: Hepatitis C virus, Huh7.5, 72 h.
For the compound `CC(C)(C)OC(=O)c1c(NC(=O)NCc2c(-n3cccc3)sc3c2CCNC3)sc2c1CCCCC2` [Compound 302], the EC50 is < 100 nM.
Still for that read-out and setting: then `CCOC(=O)c1c(NC(=O)NCc2cccc(CN(C)C)c2)sc2c1CCCC2` [Compound 102], with 100 to 1000 nM; and `CCN1CCc2c(sc(-n3cccc3)c2CNC(=O)Nc2sc3c(c2C(=O)NN2CCN(C)CC2)CCCC3)C1` [Compound 253], with 100 to 1000 nM.
The same measure, in the same setting: for `CC(C)(C)OC(=O)c1c(NC(=O)NCc2c(-c3ccc(C(F)(F)F)cc3)sc3c2CCNC3)sc2c1CCCC2` [Compound 146] the value was < 100 nM; for `CCN1CCc2c(sc(-n3cccc3)c2CNC(=O)Nc2sc3c(c2C(=O)NCCCCNC(=O)OC(C)(C)C)CCCC3)C1` [Compound 90], 1000 to 10000 nM.
Take `O=C(NCc1c(C(F)(F)F)sc2c1CCNC2)Nc1sc2c(c1C(=O)OCC(F)(F)F)CCCC2` [Compound 329]: the concentration giving a half-maximal response (EC50) is < 100 nM.
For the compound `CCOC(=O)c1c(NC(=O)NCc2c(C(F)(F)F)sc3c2CCN(C(=O)CN)C3)sc2c1CCCC2` [Compound 305], the concentration giving a half-maximal response (EC50) was < 100 nM.
On the same count and under the same terms, for `CC1CCc2c(sc(NC(=O)NCc3c(C(F)(F)F)sc4c3CCNC4)c2C(=O)OC(C)(C)C)C1` (centres unmarked) [Compound 212] the value was < 100 nM.
Compound `CCOC(=O)c1c(NC(=O)NCc2ccc(CN(C)C)cc2Br)sc2c1CCCC2` [Compound 93] gave an EC50 of 100 to 1000 nM.
As to `CCOC(=O)c1c(NC(=O)NCc2c(C(F)(F)F)sc3c2CCNC3)sc2c1C(C)CCC2` (centres unmarked) [Compound 190], the EC50 is < 100 nM.
On the same count and under the same terms, for `Cc1sc(NC(=O)NCc2c(-c3ccoc3)sc3c2CCNC3)c(C(=O)OC(C)(C)C)c1C` [Compound 332] the value was < 100 nM; for `Cc1cc(C(=O)OC(C)(C)C)c(NC(=O)NCc2c(C(F)(F)F)sc3c2CCNC3)s1` [Compound 347], < 100 nM; for `CCc1sc2c(c1CNC(=O)Nc1sc3c(c1C(=O)OC(C)(C)C)CCCC3)CCNC2` [Compound 181], < 100 nM.
Still for that read-out and setting: for `CCOC(=O)c1cc2ccccc2cc1NC(=O)NCc1c(-n2cccc2)sc2c1CCN(CC)C2` [Compound 45] the value was 1000 to 10000 nM; for `Cc1sc(NC(=O)NCc2c(C(F)(F)F)sc3c2CCNC3)c(C(=O)OC(C)C)c1C` [Compound 217], < 100 nM.
As to `CCN1CCc2c(sc(-n3cccc3)c2CNC(=O)Nc2sc3c(c2C(=O)OC(C)(C)C)CCC3)C1` [Compound 114], the EC50 is < 100 nM.
Still for that read-out and setting: then `CCN1CCc2c(sc(Br)c2CNC(=O)Nc2sc3c(c2C(=O)OC)CCCC3)C1` [Compound 177], with < 100 nM.
For `CCN1CCc2c(sc(-n3cccc3)c2CNC(=O)Nc2sc3c(c2C(=O)OC(C)(C)C)CCC(C)C3)C1` (centres unmarked) [Compound 211], the EC50 is < 100 nM.
Same read-out and setting: then `CC(C)(C)OC(=O)c1c(NC(=O)NCc2c(-c3ccc(C(=O)O)cc3)sc3c2CCNC3)sc2c1CCCC2` [Compound 257], with 1000 to 10000 nM; and `CC(C)N1CCc2c(sc(-n3cccc3)c2CNC(=O)Nc2sc3c(c2C(=O)OC(C)(C)C)CCCC3)C1` [Compound 98], with < 100 nM.
The same measure, in the same setting: for `CCNC(=O)c1c(NC(=O)NCc2c(-n3cccc3)sc3c2CCN(CC)C3)sc2c1CCCC2` [Compound 36] the value was < 100 nM.
The same measure, in the same setting: for `CC(C)(C)OC(=O)c1c(NC(=O)NCc2c(-n3cccc3)sc3c2CCN(C2CC2)C3)sc2c1CCCC2` [Compound 334] the value was < 100 nM.
With `CCN1CCc2c(sc(C(F)(F)F)c2CNC(=O)Nc2sc3c(c2C(=O)OC(C)C)CCCC3)C1` [Compound 171], the half-maximal effective concentration (EC50) is < 100 nM.
For `O=C(NCc1c(-c2ccco2)sc2c1CCNC2)Nc1sc2c(c1C(=O)OC1CCOC1)CCCC2` (centres unmarked) [Compound 342], the EC50 is < 100 nM.
Take `CCN1CCc2c(sc(-n3cccc3)c2CNC(=O)Nc2sc3c(c2C(=O)OC(C)(C)C)CCCC3)C1` [Compound 14]: the concentration for a half-maximal effect (EC50) was < 100 nM.
Regarding `CC(C)(C)OC(=O)c1c(NC(=O)NCc2c(C(F)(F)F)sc3c2CCNC3)sc2c1CCC1(C2)OCCO1` [Compound 311], the EC50 is < 100 nM.
The compound `CCOC(=O)c1c(NC(=O)NCc2c(-n3cccc3)sc3c2CCN(CC)C3)sc(OC)c1C` [Compound 32] returned an EC50 of 100 to 1000 nM.
On the same count and under the same terms, for `CC(C)(C)OC(=O)c1c(NC(=O)NCc2c(Br)sc3c2CCNC3)sc2c1CCCCC2` [Compound 225] the value was < 100 nM; for `CN1CCc2c(sc(Br)c2CNC(=O)Nc2sc3c(c2C(=O)OC(C)(C)C)CCC3)C1` [Compound 299], < 100 nM.
For `CC(C)(C)OC(=O)c1c(NC(=O)NCc2c(-c3ccncc3)sc3c2CCNC3)sc2c1CCCC2` [Compound 145], the EC50 is < 100 nM.
Still for that read-out and setting: then `CCc1c(C)sc(NC(=O)NCc2c(-n3cccc3)sc3c2CCNC3)c1C(=O)OC(C)(C)C` [Compound 269], with < 100 nM.
On the same count and under the same terms, for `CC(C)(C)OC(=O)c1c(NC(=O)NCc2c(C(F)(F)F)sc3c2CCNC3)sc2c1CCOC2F` (centres unmarked) [Compound 335] the value was < 100 nM; for `CC(C)(C)OC(=O)c1c(NC(=O)NCc2c(-c3cccnc3)sc3c2CCNC3)sc2c1CCCC2` [Compound 123], < 100 nM; for `CCOC(=O)c1c(NC(=O)NCc2c(C(F)(F)F)sc(CN(C)C)c2C)sc2c1CCCC2` [Compound 214], < 100 nM.
On the same count and under the same terms, for `CCOC(=O)c1c(NC(=O)NCc2c(C(F)(F)F)sc3c2CCN(C)C3)sc2c1CCCC2` [Compound 197] the value was < 100 nM; for `CCOC(=O)c1c(NC(=O)NCc2c(N3C(=O)CCC3=O)sc3c2CCN(CC)C3)sc2c1CCCC2` [Compound 31], 100 to 1000 nM.
For `CN1CCc2c(sc(Br)c2CNC(=O)Nc2sc3c(c2C(=O)OC(C)(C)C)CCCCC3)C1` [Compound 279], the EC50 is < 100 nM.
The same measure, in the same setting: for `CCOC(=O)c1c(NC(=O)NCc2c(-n3cccc3)sc3c2CCNC3)sc(C)c1C` [Compound 70] the value was 100 to 1000 nM.
On the same count and under the same terms, for `CCOC(=O)c1c(NC(=O)C(=O)NCc2c(C(F)(F)F)sc3c2CCNC3)sc2c1CCCC2` [Compound 120] the value was 1000 to 10000 nM; for `O=C(NCc1c(C(F)(F)F)sc2c1CCNC2)Nc1sc2c(c1C(=O)OC1CCOC1)CCOC2` (centres unmarked) [Compound 336], < 100 nM; for `CC(C)(C)OC(=O)c1c(NC(=O)NCc2c(-c3ccc(Cl)nc3)sc3c2CCNC3)sc2c1CCCC2` [Compound 307], < 100 nM.
Take `CCN1CCc2c(sc(-n3cccc3)c2CNC(=O)Nc2sc3c(c2C(=O)O)CCCC3)C1` [Compound 16]: the concentration for a half-maximal effect (EC50) is > 10000 nM.
